Where two headings read alike, the source gives them in different places.
Experiments:
Opioid μ = tested on: T1, Opioid μ; test: Cerep binding; parameters: species or system human; details: 10 μM; [3H]DAMGO; hum. recomb. (HEK-293)
T1 construct: host or cells: HEK-293

GABAA-α5 receptors [1] = biological target: T2, GABAA-α5 receptors (Homo sapiens, UniProt P18507+P31644); test: [11C]-Ro 15-4513 PET receptor occupancy study in healthy volunteers; format: in vivo; details: for EC50: Emax model, nine subjects
T2 construct: occupancy at the GABAA-α5 subunit-containing receptors in the human brain after oral dosing; from tissue; host or cells: brain of healthy human volunteers, in vivo PET
T2 sequence (P31644 32-462): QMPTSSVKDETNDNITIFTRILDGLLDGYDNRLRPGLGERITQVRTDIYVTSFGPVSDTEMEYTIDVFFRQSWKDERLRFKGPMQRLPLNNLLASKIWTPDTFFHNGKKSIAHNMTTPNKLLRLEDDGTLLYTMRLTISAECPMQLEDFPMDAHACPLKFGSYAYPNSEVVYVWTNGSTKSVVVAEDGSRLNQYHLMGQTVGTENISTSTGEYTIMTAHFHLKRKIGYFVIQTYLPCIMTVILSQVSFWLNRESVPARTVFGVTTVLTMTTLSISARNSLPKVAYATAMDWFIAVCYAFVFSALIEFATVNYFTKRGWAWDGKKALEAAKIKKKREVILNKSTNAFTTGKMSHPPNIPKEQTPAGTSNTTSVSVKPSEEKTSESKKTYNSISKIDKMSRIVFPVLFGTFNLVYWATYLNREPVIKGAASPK
T2 sequence (P18507 40-467 limits assumed): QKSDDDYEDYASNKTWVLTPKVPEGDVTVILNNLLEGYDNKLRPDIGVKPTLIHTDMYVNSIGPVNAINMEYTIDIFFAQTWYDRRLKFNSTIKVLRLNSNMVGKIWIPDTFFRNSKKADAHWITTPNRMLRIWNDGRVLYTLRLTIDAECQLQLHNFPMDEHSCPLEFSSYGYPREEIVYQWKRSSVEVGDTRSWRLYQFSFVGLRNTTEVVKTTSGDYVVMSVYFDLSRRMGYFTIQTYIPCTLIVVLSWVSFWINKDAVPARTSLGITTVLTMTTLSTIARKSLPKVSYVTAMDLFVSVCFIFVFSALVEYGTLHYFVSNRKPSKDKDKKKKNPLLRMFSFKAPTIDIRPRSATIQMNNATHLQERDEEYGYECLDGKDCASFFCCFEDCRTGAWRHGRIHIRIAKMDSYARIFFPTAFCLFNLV
T2 sequence (P28472 26-473 partner): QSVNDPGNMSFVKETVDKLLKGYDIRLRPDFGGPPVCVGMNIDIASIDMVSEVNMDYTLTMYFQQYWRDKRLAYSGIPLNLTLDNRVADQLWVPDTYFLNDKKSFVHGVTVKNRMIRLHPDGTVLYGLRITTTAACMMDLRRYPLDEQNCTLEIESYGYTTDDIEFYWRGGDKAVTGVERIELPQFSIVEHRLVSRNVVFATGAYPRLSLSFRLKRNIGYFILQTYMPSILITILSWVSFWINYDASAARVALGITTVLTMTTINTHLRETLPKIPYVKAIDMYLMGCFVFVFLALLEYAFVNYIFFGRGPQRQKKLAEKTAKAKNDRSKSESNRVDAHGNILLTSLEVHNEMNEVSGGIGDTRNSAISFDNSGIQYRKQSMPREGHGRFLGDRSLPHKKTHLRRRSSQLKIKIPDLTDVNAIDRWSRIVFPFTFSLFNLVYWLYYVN
Excerpt: The PET study was undertaken as part of Protocol BP25611 and after four protocol amendments was described as: “A single-center, single blind molecular and functional imaging study to assess GABAA-α5 receptor expression, occupancy and functional connectivity in the brains of individuals with Down syndrome and healthy controls following a single oral administration of RO5186582 or placebo”. Full details of the protocol can be found in the Supplementary Information. The study was registered on August 17, 2012 with clinicaltrials.gov identifier NCT01667367.
Subjects returned for a follow-up visit approximately 7 to 10 days after their last dose of study medication.
The study was single-blind, i.e., subjects were blinded to dose. Blood sampling was performed at four different timepoints starting 30 min before the post dose PET scan.
Tissue time activity curves were analyzed using the simplified reference tissue model (SRTM[71]), with a basis pursuit implementation of the SRTM[72], to directly estimate the binding potential (BPND) in all target regions. […] Therefore, the time-activity curve derived from the cerebellum was used as an input for SRTM analysis.
Occupancy in scan 2 was estimated as a fractional reduction in the relevant baseline BPND (see Eq. (3)).3 Occ=BPNDBaseline-BPNDBasmisanil/BPNDBaseline.
The pharmacokinetic/pharmacodynamic population for GABAA-α5 receptor occupancy consisted of data from 9 subjects.

GABAA-α5 receptors [2] = biological target: T2, GABAA-α5 receptors; test: Receptor occupancy during EEG assessments; format: in vivo; details: 240 mg twice daily
[3] = subject 11010, 40 mg, 3.75 h prior to scan
[4] = subject 11020, 160 mg, 3.12 h prior to scan
[5] = subject 11021, 160 mg, 3.00 h prior to scan
[6] = subject 13010, 40 mg, 2.63 h prior to scan
[7] = subject 13030, 1000 mg, 4.75 h prior to scan
[8] = subject 13031, 1000 mg, 4.77 h prior to scan
[9] = subject 13040, 20 mg, 1.48 h prior to scan
[10] = subject 13041, 20 mg, 2.20 h prior to scan
[11] = subject 13050, 80 mg, 2.43 h prior to scan

With Cc1onc(-c2ccc(F)cc2)c1COc1ccc(C(=O)N2CCS(=O)(=O)CC2)cn1 [basmisanil] the “% Inhibition” value (Opioid μ) was 3%, the EC50 (GABAA-α5 receptors [1]; read-out: EC50 of receptor occupancy, free plasma concentration) was 0.067 µM and the EC50 (GABAA-α5 receptors [1]; read-out: EC50 of receptor occupancy, total plasma concentration (converted)) was about 1.21 µM. The “Receptor occupancy, Accumbens” value (GABAA-α5 receptors [1]; [3]) was 52.1%, the “Receptor occupancy, Amygdala” value (GABAA-α5 receptors [1]; [3]) was 53.5% and the “Receptor occupancy, Anterior cingulate” value (GABAA-α5 receptors [1]; [3]) was 44.8%. The “Receptor occupancy, Hippocampus” value (GABAA-α5 receptors [1]; [3]) was 48.4%, the “Receptor occupancy, Insular cortex” value (GABAA-α5 receptors [1]; [3]) was 44.6% and the “Receptor occupancy, Mean” value (GABAA-α5 receptors [1]; [3]) was 48.68%. The “Receptor occupancy, Accumbens” value (GABAA-α5 receptors [1]; [4]) was 86.6%, the “Receptor occupancy, Amygdala” value (GABAA-α5 receptors [1]; [4]) was 91.4% and the “Receptor occupancy, Anterior cingulate” value (GABAA-α5 receptors [1]; [4]) was 75.6%. For the same molecule, the “Receptor occupancy, Hippocampus” value (GABAA-α5 receptors [1]; [4]) was 87.2%, the “Receptor occupancy, Insular cortex” value (GABAA-α5 receptors [1]; [4]) was 75.2% and the “Receptor occupancy, Mean” value (GABAA-α5 receptors [1]; [4]) was 83.2%. The “Receptor occupancy, Accumbens” value (GABAA-α5 receptors [1]; [5]) was 87.0%, the “Receptor occupancy, Amygdala” value (GABAA-α5 receptors [1]; [5]) was 85.4% and the “Receptor occupancy, Anterior cingulate” value (GABAA-α5 receptors [1]; [5]) was 76.4%. The “Receptor occupancy, Hippocampus” value (GABAA-α5 receptors [1]; [5]) was 85.9%, the “Receptor occupancy, Insular cortex” value (GABAA-α5 receptors [1]; [5]) was 77.2% and the “Receptor occupancy, Mean” value (GABAA-α5 receptors [1]; [5]) was 82.38%. For the same molecule, the “Receptor occupancy, Accumbens” value (GABAA-α5 receptors [1]; [6]) was 37.3%, the “Receptor occupancy, Amygdala” value (GABAA-α5 receptors [1]; [6]) was 40% and the “Receptor occupancy, Anterior cingulate” value (GABAA-α5 receptors [1]; [6]) was 32.7%. The “Receptor occupancy, Hippocampus” value (GABAA-α5 receptors [1]; [6]) was 41.3%, the “Receptor occupancy, Insular cortex” value (GABAA-α5 receptors [1]; [6]) was 32% and the “Receptor occupancy, Mean” value (GABAA-α5 receptors [1]; [6]) was 36.66%. The “Receptor occupancy, Accumbens” value (GABAA-α5 receptors [1]; [7]) was 89.5%, the “Receptor occupancy, Amygdala” value (GABAA-α5 receptors [1]; [7]) was 93.1% and the “Receptor occupancy, Anterior cingulate” value (GABAA-α5 receptors [1]; [7]) was 79.1%. For the same molecule, the “Receptor occupancy, Hippocampus” value (GABAA-α5 receptors [1]; [7]) was 94.2%, the “Receptor occupancy, Insular cortex” value (GABAA-α5 receptors [1]; [7]) was 79.9% and the “Receptor occupancy, Mean” value (GABAA-α5 receptors [1]; [7]) was 87.16%. For the same molecule, the “Receptor occupancy, Accumbens” value (GABAA-α5 receptors [1]; [8]) was 93.7%, the “Receptor occupancy, Amygdala” value (GABAA-α5 receptors [1]; [8]) was 97.4% and the “Receptor occupancy, Anterior cingulate” value (GABAA-α5 receptors [1]; [8]) was 82.1%. For the same molecule, the “Receptor occupancy, Hippocampus” value (GABAA-α5 receptors [1]; [8]) was 94.9%, the “Receptor occupancy, Insular cortex” value (GABAA-α5 receptors [1]; [8]) was 82.2% and the “Receptor occupancy, Mean” value (GABAA-α5 receptors [1]; [8]) was 90.06%. For the same molecule, the “Receptor occupancy, Accumbens” value (GABAA-α5 receptors [1]; [9]) was 29.6%, the “Receptor occupancy, Amygdala” value (GABAA-α5 receptors [1]; [9]) was 30.9% and the “Receptor occupancy, Anterior cingulate” value (GABAA-α5 receptors [1]; [9]) was 26.2%. For the same molecule, the “Receptor occupancy, Hippocampus” value (GABAA-α5 receptors [1]; [9]) was 26.8%, the “Receptor occupancy, Insular cortex” value (GABAA-α5 receptors [1]; [9]) was 26.7% and the “Receptor occupancy, Mean” value (GABAA-α5 receptors [1]; [9]) was 28.04%. The “Receptor occupancy, Accumbens” value (GABAA-α5 receptors [1]; [10]) was 31.8%, the “Receptor occupancy, Amygdala” value (GABAA-α5 receptors [1]; [10]) was 34.7% and the “Receptor occupancy, Anterior cingulate” value (GABAA-α5 receptors [1]; [10]) was 31.7%. For the same molecule, the “Receptor occupancy, Hippocampus” value (GABAA-α5 receptors [1]; [10]) was 35.8%, the “Receptor occupancy, Insular cortex” value (GABAA-α5 receptors [1]; [10]) was 31.7% and the “Receptor occupancy, Mean” value (GABAA-α5 receptors [1]; [10]) was 33.14%. The “Receptor occupancy, Accumbens” value (GABAA-α5 receptors [1]; [11]) was 64.2%, the “Receptor occupancy, Amygdala” value (GABAA-α5 receptors [1]; [11]) was 63.5% and the “Receptor occupancy, Anterior cingulate” value (GABAA-α5 receptors [1]; [11]) was 55.8%. The “Receptor occupancy, Hippocampus” value (GABAA-α5 receptors [1]; [11]) was 63%, the “Receptor occupancy, Mean” value (GABAA-α5 receptors [1]; [11]) was 60.86% and the receptor occupancy at 240 mg (GABAA-α5 receptors [2]; 14 days, read-out: occupancy of GABAA-α5 receptors) was over 90%. It also gave a receptor occupancy at 240 mg (GABAA-α5 receptors [2]; day 14, 1 h post morning dose, read-out: receptor occupancy) of 92 ± 3% and a receptor occupancy at 240 mg (GABAA-α5 receptors [2]; day 14, 4 h post morning dose, read-out: receptor occupancy) of 94 ± 1.5%.

From article PMC8032764 (Scientific Reports, 2021)
